Results as given in patent publication US10945978B2, “Treatment and diagnosis of melanoma” (The Rockefeller University, priority 2012, dated 2021).
Entries after “also recorded” stand apart in the source; their conditions may differ.

Experiments:
[1] = test system: B16F10 parental and DTIC-resistant cells; assay: Tumor growth by DTIC-sensitive and DTIC-resistant B16F10 cells; format: in vivo, mouse; settings: dacarbazine 50 mg/kg, i.p., daily
Description: First, the cells were treated with 500 μg/mL DTIC for one week. Following this initial DTIC treatment, the remaining (˜10%) viable cells were allowed to recover for one week, after which 750 rag/mL of DTIC was added to the cell media for 5 days. Subsequent to this high-dose treatment, the cells were allowed to recover in the presence of low-dose DTIC (100 jag/mL) for one week. The cells were then continuously cultured in cell media containing 200 rag/mL DTIC for at least one month prior to grafting the cells into mice. DTIC was added to fresh cancer cell media every 3 days.

ApoE = ApoE expression by qRT-PCR in human melanoma cells; format: cell-based; settings: MeWo cells, 500 nM, 1 μM or 2 μM, 48 hours
Description: Total RNA was extracted from various cell lines using the miRvana kit (AM1560, Applied Biosystems, Austin, Tex.). The expression levels of mature miRNAs were quantified using the Taqman miRNA expression assay (4427975-0002228, Applied Biosystems). RNU44 was used as an endogenous control for normalization. For mRNA expression analyses, 600 ng of total RNA was reverse transcribed using the cDNA First-Strand Synthesis Kit (18080-051, Invitrogen), and roughly 200 ng of the resulting cDNA was then mixed with SYBR green PCR Master Mix (4309155, Applied Biosystems) and the appropriate primers. Each reaction was performed in quadruplicate, and mRNA expression was quantified by performing real-time PCR amplification using an ABI Prism 7900HT Real-Time PCR System (Applied Biosystems). GAPDH was used as an endogenous control for normalization. The following primers were used: […]
RNA was extracted from whole cell lysates using the Total RNA Purification Kit (17200, Norgen, Thorold, Canada). 600 ng of total RNA was then reverse transcribed into cDNA using the cDNA First-Strand Synthesis Kit (18080-051, Invitrogen), and quantitative real-time PCR amplification was performed as previously described (Pencheva et al., 2012) using an ABI Prism 7900HT Real-Time PCR System (Applied Biosystems, Austin, Tex.). Each PCR reaction was carried out in quadruplicates. Gene expression was normalized to GAPDH, which was used as an endogenous control.
For every sample, 600 ng of RNA was reverse transcribed into cDNA using the cDNA First-Strand Synthesis kit (Invitrogen). Approximately 200 ng of cDNA was mixed with SYBR® green PCR Master Mix and the corresponding forward and reverse primers specific for detection of human ApoE. Each reaction was carried out in quadruplicates, and ApoE mRNA expression levels were measured by quantitative real-time PCR amplification using an ABI Prism 7900HT Real-Time PCR System (Applied Biosystems). The relative ApoE expression was determined using the ΔΔCt method. GAPDH was used as an endogenous control for normalization purposes.

[2] = test system: MeWo, MeWo-LM2, HT-144, SK-Mel-2 and SK-Mel-334.2 human melanoma cells; assay: Trans-well matrigel cell invasion assay, melanoma cells; format: cell-based; settings: 1 μM for 72 hours
Description: Cancer cells were serum-starved in 0.2% FBS DMEM-based media for 12 hours. Trans-well invasion chambers (354480, BD Biosciences, Bedford, Mass.) were pre-equilibrated prior to beginning the assay by adding 0.5 mL of starvation media to the top and bottom chambers. After 30 minutes, the media in the top chamber was removed, and 0.5 mL of media containing 1×10^5 cancer cells was added into each matrigel-coated trans-well insert and incubated at 37° C. for 24 hours. For neutralization antibody and/or recombinant protein experiments, antibody/recombinant protein was added to each well at the start of the assay at the following concentrations as indicated in the figures: 5-40 μg/mL anti-ApoE 1D7 (Heart Institute, University of Ottawa), 5-40 μg/mL anti-IgG (AB-108-C, R&D Systems, Minneapolis, Minn.), 100 μM recombinant human ApoE3 (4696, BioVision, Mountain View, Calif.), and 100 μM BSA (A2153, Sigma-Aldrich). Upon completion of the assay, matrigel-coated inserts were washed with PBS, the cells at the top side of each insert were scraped off, and the inserts were fixed in 4% paraformaldehyde for 15 minutes. The inserts were then cut out and mounted onto slides using VectaShield mounting medium containing DAPI (H-1000, Vector Laboratories, Burlingame, Calif.). The basal side of each insert was imaged using an inverted fluorescence microscope (Zeiss Axiovert 40 CFL) at 5× magnification, taking three representative images for each insert. The number of invaded cells was quantified using ImageJ (NIH).
The cell invasion assay was performed as previously described in detail (Pencheva et al., 2012) using a trans-well matrigel invasion chamber system (354480, BD Biosciences). In brief, various melanoma cells were cultured in the presence of DMSO, GW3965, T0901317, or Bexarotene at 1 μM for 56 hours, after which melanoma cells were switched to starvation media (0.2% FBS) for 16 hours in the presence of each drug. Following starvation, cells were seeded into matrigel-coated trans-well inserts, and the invasion assay was allowed to proceed for 24 hours at 37° C. For ApoE antibody neutralization experiments, 40 μg/mL 1D7 anti-ApoE blocking antibody (Heart Institute, University of Ottawa, Ottawa, Canada) or 40 t g/mL anti-IgG control antibody (AB-108-C, R&D Systems, Minneapolis, Minn.) was added to each trans-well insert at the start of the assay.
The cells were then serum starved for 16 hours in 0.2% FBS media in the presence of each corresponding drug or DMSO. Following serum starvation, the cells were subjected to the trans-well invasion assay using a matrigel invasion chamber system (354480, BD Biosciences). Invasion chambers were pre-equilibrated prior to the assay by adding 0.5 mL of starvation media to the top and bottom wells. Meanwhile, cancer cells were trypsinized and viable cells were counted using trypan blue. Cancer cells were then resuspended at a concentration of 2×10^5 cells/1 mL starvation media, and 0.5 mL of cell suspension, containing 1×10^5 cells, was seeded into each trans-well. The invasion assay was allowed to proceed for 24 hours at 37° C. […] Following fixation, the inserts were washed in PBS, cut out, and mounted onto slides using VectaShield mounting medium containing DAPI nuclear stain (H-1000, Vector Laboratories). The basal side of each insert was imaged using an inverted fluorescence microscope (Zeiss Axiovert 40 CFL) at 5× magnification, and the number of DAPI-positive cells was quantified using ImageJ.

[3] = test system: B16F10 mouse melanoma cells; assay: Subcutaneous B16F10 tumor growth in C57BL/6 mice; settings: in chow: WO-2010-0138598 Ex. 9 10 or 100 mg/kg/day, SB742881 100 mg/kg/day
Description: Animals were palpated weekly for tumor formation, after which sizeable tumors were measured twice a week. Tumor volume was calculated as (small diameter)^2×(large diameter)/2.

[4] = test system: human umbilical vein endothelial cells (HUVEC's); assay: Endothelial recruitment assay (HUVEC migration towards melanoma cells); format: cell-based; settings: MeWo, HT-144, SK-Mel-2, SK-Mel-334.2; 1 μM for 72 hours
Description: 5×10^4 cancer cells were seeded into 24-well plates approximately 24 hours prior to the start of the assay. HUVEC's were grown to 80% confluency and serum starved in EGM-2 media supplemented with 0.2% FBS for 16 hours. HUVEC's were then pulsed with Cell Tracker Red CMTPX dye (C34552, Invitrogen) for 45 minutes. Meanwhile, cancer cells were washed with PBS, 0.5 mL of 0.2% FBS EGM-2 media was added to each well, and a 3.0 μm HTS Fluoroblock insert (351151, BD Falcon, San Jose, Calif.) was placed into each well. 1×10^5 HUVEC's, resuspended in 0.5 mL of starvation media, were seeded into each trans-well insert, and the recruitment assay was allowed to proceed for 16-18 hours at 37° C. For neutralization antibody and/or recombinant protein experiments, antibody/protein was then added to each well at the appropriate concentration as indicated in the figures: 40 μg/mL anti-ApoE 1D7, 40 μg/mL anti-IgG, 100 μM rhApoE3, and 100 μM BSA. Upon completion of the assay, the inserts were processed and analyzed as described for the matrigel invasion assay above (See Matrigel Invasion Assay).
The endothelial recruitment assay was carried out as previously described (Pencheva et al., 2012; Png et al., 2012). Melanoma cells were treated with DMSO, GW3965, T0901317, or Bexarotene at 1 μM for 56 hours, after which 5×10^4 cells were seeded in a 24-well plate in the presence of each drug and allowed to attach for 16 hours prior to starting the assay. HUVEC cells were serum-starved overnight in EGM-2 media containing 0.2% FBS. The following day, 1×10^5 HUVEC cells were seeded into a 3.0 μm HTS Fluoroblock trans-well migration insert (351151, BD Falcon, San Jose, Calif.) fitted into each well containing cancer cells at the bottom. The HUVEC cells were allowed to migrate towards the cancer cells for 20 hours at 37° C., after which the inserts were processed as previously described (Pencheva et al., 2012). For ApoE antibody neutralization experiments, 40 μg/mL 1D7 anti-ApoE blocking antibody (Heart Institute, University of Ottawa, Ottawa, Canada) or 40 μg/mL anti-IgG control antibody (AB-108-C, R&D Systems, Minneapolis, Minn.) was added to each trans-well insert at the start of the assay.
Subsequently, 5×10^4 cancer cells were seeded into 24-well plates in the presence of each drug or DMSO and allowed to attach for 16 hours prior to starting the assay. Human umbilical vein endothelial cells (HUVEC cells) were serum-starved in 0.2% FBS-containing media overnight. The following day, 1×10^5 HUVEC cells were seeded into a 3.0 μm HTS Fluoroblock insert (351151, BD Falcon) fitted into each well containing the cancer cells at the bottom. The HUVEC cells were allowed to migrate towards the cancer cells for 20 hours, after which the inserts were washed in PBS, fixed in 4% PFA, labeled with DAPI, and mounted on slides. The basal side of each insert was imaged using an inverted fluorescence microscope (Zeiss Axiovert 40 CFL) at 5× magnification, and the number of DAPI-positive cells was quantified using ImageJ.

[5] = test system: melanoma cells (MeWo, MeWo-LM2, HT-144, SK-Mel-334.2) and endothelial cells; assay: In vitro cell proliferation, viability and serum starvation assays; format: cell-based, human; settings: MeWo, HT-144, SK-Mel-334.2; 1 μM, 5 days
Description: To determine the effects of miR-199a or miR-1908 over-expression and combinatorial LNA-induced miRNA inhibition on cell proliferation, 2.5×10^4 cells were seeded in triplicate in 6-well plates, and viable cells were counted after 5 days. […] Viable cells were counted after 8, 24, 48, 72, and 120 hours.
The number of viable cells was counter after 8, 16, and 24 hours.
To determine the effects of GW3965, T0901317, and Bexarotene on in vitro cell growth, 2.5×10^4 melanoma cells were seeded in triplicate in 6-well plates and cultured in the presence of DMSO, GW3965, T0901317, or Bexarotene at 1 μM each. After 5 days, the number of viable and dead cells was counted using the trypan blue dye (72-57-1, Sigma-Aldrich), which selectively labels dead cells.

CN(C)/N=N/c1[nH]cnc1C(N)=O [dacarbazine]
growth of the DTIC-sensitive parental line [1]: significantly suppressed
tumor growth by B16F10 DTIC-resistant cells [1]: did not affect

CC(C)(O)c1cn(-c2ccc(-c3cc(F)c(CO)c(S(C)(=O)=O)c3)cc2F)c(C(C)(C)c2c(Cl)cccc2Cl)n1 [Compound 12]
ApoE expression induction (ApoE; listed as WO-2010-0138598 Ex. 9): varied degrees of ApoE expression induction; also recorded: potently induce
inhibition of in vitro cancer progression phenotypes (cell invasion, endothelial recruitment) ([2]; MeWo cells, relative to lower potency LXR agonists): more effective
melanoma primary tumor growth [3]: significantly inhibited

C=C(c1ccc(C(=O)O)cc1)c1cc2c(cc1C)C(C)(C)CCC2(C)C [bexarotene]
ability of melanoma cells to invade through matrigel ([2]; MeWo, HT-144, SK-Mel-2, SK-Mel-334.2): suppressed invasion only in half of the melanoma lines tested
ability of melanoma cells to recruit endothelial cells [4]: did not significantly affect
cell proliferation or cell viability rates [5]: did not affect

Fc1ccc(-c2c3cccc(C(F)(F)F)c3nn2Cc2ccc(F)cc2Cl)cc1 [LXR-623 3]
ApoE expression induction (ApoE): varied degrees of ApoE expression induction

CC(C)(O)c1cn(-c2ccc(-c3cccc(S(C)(=O)=O)c3)cc2)c(C(C)(C)c2ccccc2Cl)n1 [Compound 38]
ApoE expression induction (ApoE): varied degrees of ApoE expression induction
